Like-named read-outs stand apart in the source and are kept apart here. One block for each molecule: values may come before it.
Experiments:
Caco2 permeability test = format: in vitro ADME; details: human, Caco-2 monolayer, pH 7.4
BTK L528W = BTK L528W (Homo sapiens, UniProt Q06187, L528W)
BTK = BTK (Homo sapiens, UniProt Q06187); test: Detection of BTK degradation in Mino cells; format: cell-based; details: read-out: DC50 values for BTK degradation in Mino cells
TMD-8 cells = test: TMD-8 cell proliferation inhibitory activity test; format: cell-based; details: Homo sapiens, TMD8, 72 hours, CellTiter-Glo, read-out: IC50 values for inhibiting TMD-8 cell proliferation
Protocol: TMD-8 is a human lymphoma cell line that expresses BTK protein and is used to evaluate the efficacy of compounds. […] The cells were seeded into a 96-well culture plate (Biosharp, BS-MP-96W) at a density of 3,000 cells per well. […] Following incubation, 50 µL of a detection solution (CellTiter-Glo®, Promega, G7573) was added to each well, and the plate was uniformly mixed for 2 minutes and incubated at room temperature for 10 minutes. The chemiluminescence reading was then measured using a microplate reader (Molecular Devices, SpectraMax Paradigm). The inhibition rate of cell proliferation by the compounds was calculated according to Equation (1), where RLU compound represents the readout from the compound-treated well, RLU control represents the readout from the DMSO vehicle control well, and RLU blank represents the readout from the cell-free well. Data analysis was performed using Graphpad Prism 8.0 software. The concentration-response curve was generated by fitting the data to a four-parameter equation, and the IC50 values for the compound's inhibition of cell proliferation were calculated. Inh% = 100%−(RLUcompound−RLUblank)/(RLUcontrol−RLUblank)*100% [formula] Table 1. IC50 values for inhibiting TMD-8 cell proliferation

[1] = Pharmacokinetic test in rats; format: in vivo; details: male, SD, rat, plasma, po, i.g. (10 mg/kg)
[2] = 5 nM concentration, REC-1 BTK L528W cells, 6 hours
[3] = Mino cells, 6 hours, automated western blot

Chain of BTK (Q06187 whole entry): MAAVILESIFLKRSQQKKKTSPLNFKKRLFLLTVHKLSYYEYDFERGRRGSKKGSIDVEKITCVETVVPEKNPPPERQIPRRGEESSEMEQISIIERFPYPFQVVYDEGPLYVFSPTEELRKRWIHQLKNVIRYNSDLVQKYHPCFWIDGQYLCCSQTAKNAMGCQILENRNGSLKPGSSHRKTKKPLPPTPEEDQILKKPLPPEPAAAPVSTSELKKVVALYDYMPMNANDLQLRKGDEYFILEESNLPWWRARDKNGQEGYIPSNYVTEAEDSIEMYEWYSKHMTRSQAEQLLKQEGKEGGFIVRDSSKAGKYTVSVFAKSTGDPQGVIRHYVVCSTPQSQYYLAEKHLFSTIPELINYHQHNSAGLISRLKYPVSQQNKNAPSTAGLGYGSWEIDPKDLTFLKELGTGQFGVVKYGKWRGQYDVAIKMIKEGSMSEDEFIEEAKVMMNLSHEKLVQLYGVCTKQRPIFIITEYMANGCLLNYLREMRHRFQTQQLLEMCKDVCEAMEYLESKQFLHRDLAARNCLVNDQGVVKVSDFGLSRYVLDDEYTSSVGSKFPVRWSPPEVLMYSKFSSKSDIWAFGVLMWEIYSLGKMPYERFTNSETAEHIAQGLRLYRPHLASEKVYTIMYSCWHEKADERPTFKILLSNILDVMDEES
Chain of BTK L528W (Q06187 whole entry L528W): as the sequence (Q06187 whole entry) above, with L528W counted along it

Structure (SMILES): CN1CCN([C@@H]2CCCN(c3cnc(C(N)=O)c(Nc4ccc(C5CCN(CC6CCN(c7ccc(C(=O)N[C@H]8CCC(=O)NC8=O)nc7)CC6)CC5)cc4)n3)C2)C1=O [Control compound 1, reference compound]
Papp A→B at 2 h, 2 µM (Caco2 permeability test): 0.101 ×10⁻⁶ cm/s
Papp B→A at 2 h, 2 µM (Caco2 permeability test): 5.27 ×10⁻⁶ cm/s
efflux ratio at 2 h, 2 µM (Caco2 permeability test): 52.5

BTK degradation rate % (BTK L528W; [2]): >70%
Structure (SMILES): NC(=O)c1nnc(N2CCC[C@@H](N3CCN(CC4CC4)C3=O)C2)nc1Nc1ccc(N2CCC(CN3CCN4c5cc(F)c(C6CCC(=O)NC6=O)cc5CC[C@H]4C3)CC2)cc1 (some centres unmarked) [Trifluoroacetate of compound 93]

Structure (SMILES): CN1CCN([C@@H]2CCCN(c3cnc(C(N)=O)c(Nc4ccc(N5CCC6(CC5)CC(CN5CCN7c8cc(F)c(C(=O)N[C@H]9CCC(=O)NC9=O)cc8CC[C@@H]7C5)C6)cc4)n3)C2)C1=O [Compound 50]
DC50 (BTK): < 0.01 µM

Structure (SMILES): CN1CCN([C@@H]2CCCN(c3cnc(C(N)=O)c(Nc4ccc(N5CCC6(CC5)CC(N5CCN7c8cc(F)c(C(=O)N[C@H]9CCC(=O)NC9=O)cc8CC[C@H]7C5)C6)cc4)n3)C2)C1=O [Compound 34]
DC50 (BTK): < 0.01 µM
BTK degradation rate % (BTK L528W): >90%

DC50 (BTK; [3]): < 0.01 µM
Structure (SMILES): CN1CCN([C@@H]2CCCN(c3cnc(C(N)=O)c(Nc4ccc(N5CCC6(CC5)CC(N5CCN7c8cc(F)c(C9CCC(=O)NC9=O)cc8CC[C@H]7C5)C6)cc4)n3)C2)C1=O (some centres unmarked) [Compound 31]

BTK degradation rate % (BTK L528W; [2]): >85%
Structure (SMILES): COCCN1CCN([C@@H]2CCCN(c3nnc(C(N)=O)c(Nc4ccc(N5CCC(CN6CCN7c8cc(F)c(C9CCC(=O)NC9=O)cc8CC[C@H]7C6)CC5)c(F)c4)n3)C2)C1=O (some centres unmarked) [Compound 83]

DC50 (BTK; [3]): < 0.01 µM
Structure (SMILES): CN1CCN([C@@H]2CCCN(c3cnc(C(N)=O)c(Nc4ccc(N5CCC(CN6CCN7c8cc(F)c(C9CCC(=O)NC9=O)cc8CC[C@H]7C6)C(F)(F)C5)cc4)n3)C2)C1=O (single isomer, unassigned) [Compound 30]

Structure (SMILES): [2H]C([2H])([2H])N1CCN([C@@H]2CCCN(c3cnc(C(N)=O)c(Nc4ccc(N5CCC(CN6CCN7c8cc(F)c(C(=O)N[C@H]9CCC(=O)NC9=O)cc8CC[C@H]7C6)CC5)cc4)n3)C2)C1=O [Compound 67]
DC50 (BTK): < 0.01 µM
BTK degradation rate % (BTK L528W): >90%

Structure (SMILES): [2H]C([2H])([2H])N1CCN([C@@H]2CCCN(c3cnc(C(N)=O)c(Nc4ccc(N5CCC(CN6CCN7c8cc(F)c(C(=O)N[C@H]9CCC(=O)NC9=O)cc8CC[C@@H]7C6)CC5)cc4)n3)C2)C1=O [Compound 68]
DC50 (BTK): < 0.01 µM
BTK degradation rate % (BTK L528W): >90%

DC50 (BTK; [3]): < 0.01 µM
Structure (SMILES): CN1CCN([C@@H]2CCCN(c3cnc(C(N)=O)c(Nc4ccc(N5CCC(CN6CCN7c8cc(F)c(C9CCC(=O)NC9=O)cc8CC[C@H]7C6)C(F)(F)C5)cc4)n3)C2)C1=O (single isomer, unassigned) [Compound 29]

DC50 (BTK; [3]): < 0.01 µM
Structure (SMILES): CN1CCN([C@@H]2CCCN(c3cnc(C(N)=O)c(Nc4ccc(N5CCC(CN6CCN7c8cc(F)c(C9CCC(=O)NC9=O)cc8CC[C@@H]7C6)C(F)(F)C5)cc4)n3)C2)C1=O (single isomer, unassigned) [Compound 28]

BTK degradation rate % (BTK L528W; [2]): >80%
Structure (SMILES): NC(=O)c1nnc(N2CCC[C@@H](N3CCN(C4CC4)C3=O)C2)nc1Nc1ccc(N2CCC(CN3CCN4c5cc(F)c(C6CCC(=O)NC6=O)cc5CC[C@H]4C3)CC2)cc1 (some centres unmarked) [Compound 89]

Structure (SMILES): CN1CCN([C@@H]2CCCN(c3cnc(C(N)=O)c(Nc4ccc(N5CCC(N6CCN7c8cc(F)c(C(=O)N[C@H]9CCC(=O)NC9=O)cc8CC[C@H]7C6)CC5)cc4)n3)C2)C1=O [Trifluoroacetate of compound 36]
DC50 (BTK): < 0.01 µM

Structure (SMILES): CN1CCN([C@@H]2CCCN(c3cnc(C(N)=O)c(Nc4ccc(N5CCC(CN6CCN7c8cc(F)c(C9CCC(=O)NC9=O)cc8CC[C@@H]7C6)CC5)cc4)n3)C2)C1=O (some centres unmarked) [Compound 12]
DC50 (BTK; [3]): < 0.01 µM
BTK degradation rate % (BTK L528W; [2]): >90%
Papp A→B at 2 h, 2 µM (Caco2 permeability test): 1.18 ×10⁻⁶ cm/s
Papp B→A at 2 h, 2 µM (Caco2 permeability test): 4.71 ×10⁻⁶ cm/s
efflux ratio at 2 h, 2 µM (Caco2 permeability test): 3.99
IC50 (TMD-8 cells): < 0.02 µM

BTK degradation rate % (BTK L528W; [2]): >85%
Structure (SMILES): COCCN1CCN([C@@H]2CCCN(c3nnc(C(N)=O)c(Nc4ccc(N5CCC(CN6CCN7c8cc(F)c(C9CCC(=O)NC9=O)cc8CC[C@H]7C6)CC5)cc4)n3)C2)C1=O (some centres unmarked) [Compound 82]

Structure (SMILES): CN1CCN([C@@H]2CCCN(c3nnc(C(N)=O)c(Nc4ccc(N5CCC(CN6CCN7c8cc(F)c(C(=O)N[C@H]9CCC(=O)NC9=O)cc8CC[C@@H]7C6)CC5)cc4)n3)C2)C1=O [Compound 47]
DC50 (BTK): < 0.01 µM
BTK degradation rate % (BTK L528W): >90%

Structure (SMILES): [2H]C([2H])([2H])N1CCN([C@@H]2CCCN(c3nnc(C(N)=O)c(Nc4ccc(N5CCC(CN6CCN7c8cc(F)c(C(=O)N[C@H]9CCC(=O)NC9=O)cc8CC[C@@H]7C6)CC5)cc4)n3)C2)C1=O [Compound 61]
DC50 (BTK): < 0.01 µM
BTK degradation rate % (BTK L528W): >90%

Structure (SMILES): CN1CCN([C@@H]2CCCN(c3cnc(C(N)=O)c(Nc4ccc(N5CCC(CN6CCN7c8cc(F)c(C9CCC(=O)NC9=O)cc8CC[C@H]7C6)CC5)cc4)n3)C2)C1=O (some centres unmarked) [Compound 11]
DC50 (BTK; [3]): < 0.01 µM
Papp A→B at 2 h, 2 µM (Caco2 permeability test): 1.75 ×10⁻⁶ cm/s
Papp B→A at 2 h, 2 µM (Caco2 permeability test): 3.74 ×10⁻⁶ cm/s
efflux ratio at 2 h, 2 µM (Caco2 permeability test): 2.14
IC50 (TMD-8 cells): < 0.02 µM
bioavailability ([1]; Vehicle 1): > 50%
AUC(0-t) ([1]; Vehicle 1): > 1000 ng·h/mL

BTK degradation rate % (BTK L528W; [2]): >70%
Structure (SMILES): COCCN1CCN([C@@H]2CCCN(c3cnc(C(N)=O)c(Nc4ccc(N5CCC(CN6CCN7c8cc(F)c(C9CCC(=O)NC9=O)cc8CC[C@H]7C6)CC5)cc4)n3)C2)C1=O (some centres unmarked) [Compound 84]

Structure (SMILES): CN1CCN([C@@H]2CCCN(c3nnc(C(N)=O)c(Nc4ccc(N5CCC(CN6CCN7c8cc(F)c(C9CCC(=O)NC9=O)cc8CC[C@@H]7C6)CC5)c(F)c4)n3)C2)C1=O (some centres unmarked) [Compound 77]
BTK degradation rate % (BTK L528W; [2]): >90%
Papp A→B at 2 h, 2 µM (Caco2 permeability test): 0.984 ×10⁻⁶ cm/s
Papp B→A at 2 h, 2 µM (Caco2 permeability test): 4.89 ×10⁻⁶ cm/s
efflux ratio at 2 h, 2 µM (Caco2 permeability test): 4.97
AUC(0-t) ([1]; Vehicle 2): > 1000 ng·h/mL

DC50 (BTK; [3]): < 0.01 µM
Structure (SMILES): CN1CCN([C@@H]2CCCN(c3cnc(C(N)=O)c(Nc4ccc(N5CCC(CN6CCN7c8cc(F)c(C9CCC(=O)NC9=O)cc8CC[C@@H]7C6)C(F)(F)C5)cc4)n3)C2)C1=O (single isomer, unassigned) [Compound 27]

DC50 (BTK; [3]): < 0.01 µM
Structure (SMILES): CN1CCN([C@@H]2CCCN(c3cnc(C(N)=O)c(Nc4ccc(N5CCC6(CC5)CC(N5CCN7c8cc(F)c(C9CCC(=O)NC9=O)cc8CC[C@@H]7C5)C6)cc4)n3)C2)C1=O (some centres unmarked) [Compound 32]

Structure (SMILES): CN1CCN([C@@H]2CCCN(c3cnc(C(N)=O)c(Nc4ccc(N5CCC(CN6CCN7c8cc(F)c(N9CCC(=O)NC9=O)cc8CC[C@@H]7C6)CC5)cc4)n3)C2)C1=O [Compound 22]
DC50 (BTK; [3]): < 0.01 µM
Papp A→B at 2 h, 2 µM (Caco2 permeability test): 2.38 ×10⁻⁶ cm/s
Papp B→A at 2 h, 2 µM (Caco2 permeability test): 4.44 ×10⁻⁶ cm/s
efflux ratio at 2 h, 2 µM (Caco2 permeability test): 1.87
AUC(0-t) ([1]; Vehicle 2): > 1000 ng·h/mL

Structure (SMILES): CN1CCN([C@@H]2CCCN(c3cnc(C(N)=O)c(Nc4ccc(N5CCC6(CC5)CC(CN5CCN7c8cc(F)c(C9CCC(=O)NC9=O)cc8CC[C@H]7C5)C6)cc4)n3)C2)C1=O (some centres unmarked) [Compound 14]
DC50 (BTK; [3]): < 0.01 µM
Papp A→B at 2 h, 2 µM (Caco2 permeability test): 0.35 ×10⁻⁶ cm/s
Papp B→A at 2 h, 2 µM (Caco2 permeability test): 0.867 ×10⁻⁶ cm/s
efflux ratio at 2 h, 2 µM (Caco2 permeability test): 2.47
AUC(0-t) ([1]; Vehicle 2): > 1000 ng·h/mL

Structure (SMILES): [2H]C([2H])([2H])N1CCN([C@@H]2CCCN(c3cnc(C(N)=O)c(Nc4ccc(N5CCC(CN6CCN7c8cc(F)c(N9CCC(=O)NC9=O)cc8CC[C@@H]7C6)CC5)cc4)n3)C2)C1=O [Compound 66]
DC50 (BTK): < 0.01 µM
BTK degradation rate % (BTK L528W): >80%

Reference: patent EP4755887A1, “POLYCYCLIC FUSED-RING BTK DEGRADATION AGENT AND USE THEREOF IN MEDICINE” (Haisco Pharmaceutical Group Co., Ltd., priority 2023, dated 2025)
